Patent EP4512806A1, “MOLECULAR GLUE DEGRADERS AND USES THEREOF” (Mablink Bioscience, priority 2023, dated 2025)

Columns and labels:
BT-474 = assay: In vitro cytotoxicity assay (MTT); assay type: cell-based, human; conditions: 6 days incubation
Excerpt: (§1) Human cancer cell lines used in the present project were purchased from either the American Type Culture Collection (ATCC), The Leibniz Institute DSMZ German Collection of Microorganisms and Cell Cultures GmbH (DSMZ) or the European Collection of Authenticated Cell Cultures (ECACC). For use in experiments, cells were cultivated following good and established cell culture practices, following instructions from the original ATCC/DSMZ/ECACC supplier for cell culture media & supplement, cryopreservation, and subculturing procedures. Cells were incubated under a 5% CO2 atmosphere at 37°C for no longer than 2 months.
(§2) In vitro cytotoxicity of compounds of the disclosure was assessed on several cancerous human cell lines. Cells were plated in 96-well plates at an appropriate density depending on the cell line (between 1000 and 10 000 cells/well in 100µL of appropriate culture media) and incubated at 37°C for 24 hours. Serial dilutions of the tested compound previously dissolved in culture media (50µL) were added, and incubation was carried at 37°C out for 6 days. MTT (5mg/mL in PBS, 20µL, Sigma-Aldrich) was added into the wells, and incubation was continued for 1 to 4 hours at 37°C. Culture media was then carefully removed, and well content was homogeneously dissolved with acidified isopropanol. Absorbance values were measured on a microplate reader using a wavelength of 570 nm (with a reference wavelength of 690 nm). The IC50 concentration values compared to untreated control cells were determined using inhibition dose response curve fitting (GraphPad Prism 9). Exatecan mesylate (cat#HY-13631A) and CR8 (CAS# 294646-77-8; cat#HY-18340) were purchased from MedChemExpress (China).

NCI-N87 = assay: In vitro cytotoxicity assay (MTT); assay type: cell-based, human; conditions: 6 days incubation
Excerpt: as §1, §2

JIMT-1 = assay: In vitro cytotoxicity assay (MTT); assay type: cell-based, human; conditions: 6 days incubation
Excerpt: as §1, §2

MDA-MB-453 = assay: In vitro cytotoxicity assay (MTT); assay type: cell-based, human; conditions: 6 days incubation
Excerpt: as §1, §2

SKBR-3 = assay: In vitro cytotoxicity assay (MTT); assay type: cell-based, human; conditions: 6 days incubation
Excerpt: as §1, §2

MDA-MB-231 = assay: In vitro cytotoxicity assay (MTT); assay type: cell-based, human; conditions: 6 days incubation
Excerpt: as §1, §2

JIMT-1 cells = assay: Cell cycle arrest assessment (propidium iodide, flow cytometry); assay type: cell-based, human
Protocol: 1×10^6 JIMT-1 cells were plated in 3mL of DMEM/FBS 90:10 (v/v) in 6-well plates and incubated overnight. Cells were treated with the compound 2384 of the invention or with CR8 for 24h. Cells were then harvested and washed three times with PBS. Cells were suspended into 300µL of propidium iodide working solution (0.05mg/mL) and incubated for 45 minutes at 4°C in the dark. Analysis was performed using a BD Fortessa flow cytometer controlled by BD FACSDiva software (BD Biosciences) and data were analyzed using FlowJo software (BD Bioscience).

CycK = molecular target: T1, CycK (Homo sapiens, UniProt O75909); assay: CycK protein quantification by Western Blot in JIMT-1 cells; assay type: cell-based; conditions: 2h treatment, 10nM
T1 construct: endogenous in cells; host or cells: JIMT-1
Protocol: 1×10^6 JIMT-1 cells were plated in 3mL of DMEM/FBS 90:10 (v/v) in 6-well plates and incubated overnight. Cells were treated with the compound 2384 of the invention with or without the proteasome inhibitor MG-132 (MedChemExpress, Cat HY-13259) for 2h. Cells were harvested, and protein were extracted using complete RIPA buffer (RIPA buffer, 1 mM DTT, 1M NaF, 100 mM sodium orthovanadate, phosphatase inhibitor buffer and protease inhibitors) for 1 hour on ice. Lysate were centrifuged 15min at 12 000g at 4°C. and proteins were mixed with 4x Laemmli Sample Buffer (Bio-Rad), heated at 95 °C for 5 mins and separated by SDS PAGE (PROTEAN TGX Stain-Free Gels, Bio-Rad). Proteins were then transferred onto PVDF membrane (iBlot®2 PVDF stacks, Invitrogen) using the iBlot2 device (Invitrogen) and blocked with TBS buffer (Intercept® Blocking Buffer, LI-COR Biosciences). Primary antibodies were incubated overnight at 4°C and secondary antibodies (IRDye Infrared Dyes from LI-COR Biosciences) 1 hour at room temperature. Used primary antibody were: anti-CycK (cat#A301-939A, Bethyl Laboratories, dil. 1:1000) and anti-β-actin (cat#A5441, Sigma-Aldrich, dil. 1:5000). Membranes were scanned using a c500 Imaging System (Azure Biosystems) and densitometric quantification were performed using imaged software. Protein levels were normalized against β-actin.

[1] = tested on: panel of human cancer cell lines; assay: In vitro cytotoxicity assay (MTT), panel of cell lines; assay type: cell-based; conditions: panel of human cancer cell lines, in words
Excerpt: as §1, §2

T1 sequence (O75909 whole entry): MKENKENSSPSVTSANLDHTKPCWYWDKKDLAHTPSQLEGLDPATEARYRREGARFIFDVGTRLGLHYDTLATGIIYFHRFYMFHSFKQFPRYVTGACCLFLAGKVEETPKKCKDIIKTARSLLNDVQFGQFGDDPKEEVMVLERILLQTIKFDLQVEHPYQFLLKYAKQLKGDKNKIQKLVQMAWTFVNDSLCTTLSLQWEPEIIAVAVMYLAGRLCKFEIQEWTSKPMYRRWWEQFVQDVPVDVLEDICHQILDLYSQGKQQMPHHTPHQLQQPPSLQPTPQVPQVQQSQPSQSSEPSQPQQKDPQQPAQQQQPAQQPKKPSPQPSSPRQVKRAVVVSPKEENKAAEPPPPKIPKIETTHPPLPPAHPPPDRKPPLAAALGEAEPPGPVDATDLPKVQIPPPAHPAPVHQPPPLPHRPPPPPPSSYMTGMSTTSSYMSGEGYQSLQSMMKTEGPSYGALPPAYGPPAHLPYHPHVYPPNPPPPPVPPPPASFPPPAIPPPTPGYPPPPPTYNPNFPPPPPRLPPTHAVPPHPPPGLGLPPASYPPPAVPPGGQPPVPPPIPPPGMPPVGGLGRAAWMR
T1 sequence (Q9NYV4 whole entry partner): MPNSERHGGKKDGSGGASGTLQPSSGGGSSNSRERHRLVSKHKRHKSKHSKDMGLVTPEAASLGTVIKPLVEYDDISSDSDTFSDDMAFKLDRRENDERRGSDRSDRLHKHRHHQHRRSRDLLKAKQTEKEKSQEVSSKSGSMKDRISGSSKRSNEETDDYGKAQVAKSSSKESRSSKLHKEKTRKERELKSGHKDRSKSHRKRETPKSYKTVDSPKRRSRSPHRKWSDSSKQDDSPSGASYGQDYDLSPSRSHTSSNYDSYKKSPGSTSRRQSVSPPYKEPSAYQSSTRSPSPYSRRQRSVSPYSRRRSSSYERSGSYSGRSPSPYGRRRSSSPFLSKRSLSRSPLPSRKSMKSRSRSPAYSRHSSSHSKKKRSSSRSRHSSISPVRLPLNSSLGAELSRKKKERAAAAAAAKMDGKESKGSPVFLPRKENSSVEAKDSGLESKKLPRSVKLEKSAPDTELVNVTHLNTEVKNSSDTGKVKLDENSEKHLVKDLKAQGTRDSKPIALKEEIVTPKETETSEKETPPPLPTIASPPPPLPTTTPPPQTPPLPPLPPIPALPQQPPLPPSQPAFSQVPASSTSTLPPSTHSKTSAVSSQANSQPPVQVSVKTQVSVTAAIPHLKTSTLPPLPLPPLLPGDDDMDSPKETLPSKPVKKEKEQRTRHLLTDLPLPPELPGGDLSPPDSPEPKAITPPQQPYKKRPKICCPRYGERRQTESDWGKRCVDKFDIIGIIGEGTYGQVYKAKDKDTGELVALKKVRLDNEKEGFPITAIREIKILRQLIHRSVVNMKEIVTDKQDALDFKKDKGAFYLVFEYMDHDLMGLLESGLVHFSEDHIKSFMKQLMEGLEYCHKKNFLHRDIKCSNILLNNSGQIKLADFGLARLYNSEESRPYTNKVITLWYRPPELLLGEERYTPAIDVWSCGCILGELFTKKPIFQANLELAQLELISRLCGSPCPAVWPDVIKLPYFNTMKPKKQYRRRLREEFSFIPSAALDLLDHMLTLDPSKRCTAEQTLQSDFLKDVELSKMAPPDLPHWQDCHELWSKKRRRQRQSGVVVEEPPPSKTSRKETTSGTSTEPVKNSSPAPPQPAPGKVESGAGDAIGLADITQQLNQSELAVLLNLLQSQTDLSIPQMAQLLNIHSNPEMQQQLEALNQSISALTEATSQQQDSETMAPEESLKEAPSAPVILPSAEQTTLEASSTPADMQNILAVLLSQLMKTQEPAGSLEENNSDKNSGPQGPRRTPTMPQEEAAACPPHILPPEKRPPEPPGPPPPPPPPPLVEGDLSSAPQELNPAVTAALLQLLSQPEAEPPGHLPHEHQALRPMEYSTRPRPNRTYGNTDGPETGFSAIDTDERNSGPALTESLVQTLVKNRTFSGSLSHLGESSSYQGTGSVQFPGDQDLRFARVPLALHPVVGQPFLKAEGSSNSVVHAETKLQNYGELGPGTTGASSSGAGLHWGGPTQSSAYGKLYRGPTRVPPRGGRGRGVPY
T1 sequence (Q16531 whole entry partner): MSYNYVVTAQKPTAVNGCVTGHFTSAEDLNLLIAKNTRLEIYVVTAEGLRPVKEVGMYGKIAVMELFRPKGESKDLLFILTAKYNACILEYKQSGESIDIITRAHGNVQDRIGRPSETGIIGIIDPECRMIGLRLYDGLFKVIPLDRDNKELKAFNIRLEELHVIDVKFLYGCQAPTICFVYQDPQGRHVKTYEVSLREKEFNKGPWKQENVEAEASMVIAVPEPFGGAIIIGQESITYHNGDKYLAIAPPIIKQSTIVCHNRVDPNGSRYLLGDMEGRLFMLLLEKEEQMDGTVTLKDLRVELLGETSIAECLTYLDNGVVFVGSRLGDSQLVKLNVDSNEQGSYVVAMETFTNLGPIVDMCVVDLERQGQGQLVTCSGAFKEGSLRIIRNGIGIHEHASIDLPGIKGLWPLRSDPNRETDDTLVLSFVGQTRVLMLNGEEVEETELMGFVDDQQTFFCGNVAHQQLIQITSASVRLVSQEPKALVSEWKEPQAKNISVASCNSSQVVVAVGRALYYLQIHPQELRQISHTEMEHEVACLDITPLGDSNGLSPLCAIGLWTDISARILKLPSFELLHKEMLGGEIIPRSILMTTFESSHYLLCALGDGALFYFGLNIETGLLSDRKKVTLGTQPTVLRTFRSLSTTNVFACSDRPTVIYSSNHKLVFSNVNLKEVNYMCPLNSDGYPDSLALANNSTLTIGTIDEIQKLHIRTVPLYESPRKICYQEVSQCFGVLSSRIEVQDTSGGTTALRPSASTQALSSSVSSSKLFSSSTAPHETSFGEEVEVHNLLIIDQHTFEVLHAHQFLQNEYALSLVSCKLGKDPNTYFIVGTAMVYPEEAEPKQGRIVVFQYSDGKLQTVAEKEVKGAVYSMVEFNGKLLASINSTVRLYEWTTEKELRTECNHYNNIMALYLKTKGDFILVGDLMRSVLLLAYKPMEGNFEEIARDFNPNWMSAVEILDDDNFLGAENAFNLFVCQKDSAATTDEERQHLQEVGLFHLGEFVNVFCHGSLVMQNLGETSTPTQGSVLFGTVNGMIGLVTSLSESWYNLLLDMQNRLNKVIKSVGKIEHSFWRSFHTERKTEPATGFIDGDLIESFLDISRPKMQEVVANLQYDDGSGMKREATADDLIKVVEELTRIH

## CC[C@H](CO)Nc1nc(NCc2ccc(-c3ccccn3)cc2)c2ncn(C(C)C)c2n1 [CR8, reference compound]
BT-474
  IC50: 0.0184 µM
NCI-N87
  IC50: 0.0622 µM
JIMT-1
  IC50: 0.0252 µM
MDA-MB-453
  IC50: 0.0403 µM
SKBR-3
  IC50: 0.0306 µM
MDA-MB-231
  IC50: 0.0104 µM
JIMT-1 cells; 24h, 50 nM
  cell cycle analysis (propidium iodide): arrest in G2/M phase
JIMT-1 cells; 24h, 2, 5, and 10 nM
  cell cycle analysis (propidium iodide): no impact on cell cycle
CycK
  CycK degradation: no CycK was observed
[1]
  in vitro cytotoxic potency: high nanomolar range
